Measured values reported in PubChem BioAssay AID2060335 (Molecular Pharmacology Branch, DTP, NCI, 2025).

Tested on: DU-145 multicell spheroids with HUVEC/MSC, viability
Test: Anticancer human tumor DU-145 cell line growth inhibition [IpAb];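 further: spheroids exposed to agents for seven days before measurement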;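 on viability, T/C: percent of DMSO vehicle control viability so 100% = untreated level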
Conditions: for IC50: curve of first compound; for viability, T/C: stronger effect = lower value
Summary of the method: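 Multi-cell spheroids of 60% tumour cells, 25% HUVEC and 15% MSC in ultra-low-attachment U-bottom wells, treated with agents combined with ipatasertib or abemaciclib. Half-log ranges top out near clinical Cmax, or 10 microM when Cmax is unknown.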

[1] = second compound 0.01 µM, first compound 0.0316 µM
[2] = second compound 0.01 µM, first compound 0.1 µM
[3] = second compound 0.01 µM, first compound 0.316 µM
[4] = second compound 0.01 µM, first compound 1 µM
[5] = second compound 0.01 µM, first compound 3.16 µM
[6] = second compound 0.01 µM, first compound 10 µM
[7] = second compound 0.0316 µM, first compound 0.0316 µM
[8] = second compound 0.0316 µM, first compound 0.1 µM
[9] = second compound 0.0316 µM, first compound 0.316 µM
[10] = second compound 0.0316 µM, first compound 1 µM
[11] = second compound 0.0316 µM, first compound 3.16 µM
[12] = second compound 0.0316 µM, first compound 10 µM
[13] = second compound 0.1 µM, first compound 0.0316 µM
[14] = second compound 0.1 µM, first compound 0.1 µM
[15] = second compound 0.1 µM, first compound 0.316 µM
[16] = second compound 0.1 µM, first compound 1 µM
[17] = second compound 0.1 µM, first compound 3.16 µM
[18] = second compound 0.1 µM, first compound 10 µM
[19] = second compound 0.316 µM, first compound 0.0316 µM
[20] = second compound 0.316 µM, first compound 0.1 µM
[21] = second compound 0.316 µM, first compound 0.316 µM
[22] = second compound 0.316 µM, first compound 1 µM
[23] = second compound 0.316 µM, first compound 3.16 µM
[24] = second compound 0.316 µM, first compound 10 µM
[25] = second compound 1 µM, first compound 0.0316 µM
[26] = second compound 1 µM, first compound 0.1 µM
[27] = second compound 1 µM, first compound 0.316 µM
[28] = second compound 1 µM, first compound 1 µM
[29] = second compound 1 µM, first compound 3.16 µM
[30] = second compound 1 µM, first compound 10 µM
[31] = second compound 0.01 µM, first compound 0.00949 µM
[32] = second compound 0.01 µM, first compound 0.03 µM
[33] = second compound 0.01 µM, first compound 0.0949 µM
[34] = second compound 0.01 µM, first compound 0.3 µM
[35] = second compound 0.0316 µM, first compound 0.00949 µM
[36] = second compound 0.0316 µM, first compound 0.03 µM
[37] = second compound 0.0316 µM, first compound 0.0949 µM
[38] = second compound 0.0316 µM, first compound 0.3 µM
[39] = second compound 0.1 µM, first compound 0.00949 µM
[40] = second compound 0.1 µM, first compound 0.03 µM
[41] = second compound 0.1 µM, first compound 0.0949 µM
[42] = second compound 0.1 µM, first compound 0.3 µM
[43] = second compound 0.316 µM, first compound 0.00949 µM
[44] = second compound 0.316 µM, first compound 0.03 µM
[45] = second compound 0.316 µM, first compound 0.0949 µM
[46] = second compound 0.316 µM, first compound 0.3 µM
[47] = second compound 1 µM, first compound 0.00949 µM
[48] = second compound 1 µM, first compound 0.03 µM
[49] = second compound 1 µM, first compound 0.0949 µM
[50] = second compound 1 µM, first compound 0.3 µM

C=CC(=O)N1CCN(c2nc(=O)n(-c3c(C)ccnc3C(C)C)c3nc(-c4c(O)cccc4F)c(F)cc23)C(C)C1 (stereo not given) + CCN1CCN(Cc2ccc(Nc3ncc(F)c(-c4cc(F)c5nc(C)n(C(C)C)c5c4)n3)nc2)CC1
IC50 (second compound 0.01 µM): 7.92 µM | IC50 (second compound 0.0316 µM): 7.52 µM | IC50 (second compound 0.1 µM): 8.37 µM | IC50 (second compound 0.316 µM): 9.55 µM | IC50 (second compound 1 µM): 6.07 µM | viability, T/C [1]: 94.6% | viability, T/C [2]: 104% | viability, T/C [3]: 111% | viability, T/C [4]: 104% | viability, T/C [5]: 86.1% | viability, T/C [6]: 40.6% | viability, T/C [7]: 91.2% | viability, T/C [8]: 95% | viability, T/C [9]: 98.7% | viability, T/C [10]: 96.5% | viability, T/C [11]: 81.5% | viability, T/C [12]: 39.4% | viability, T/C [13]: 82.8% | viability, T/C [14]: 81% | viability, T/C [15]: 91.5% | viability, T/C [16]: 93.3% | viability, T/C [17]: 78.4% | viability, T/C [18]: 44.8% | viability, T/C [19]: 78.8% | viability, T/C [20]: 78.3% | viability, T/C [21]: 82.4% | viability, T/C [22]: 85.8% | viability, T/C [23]: 77.3% | viability, T/C [24]: 49% | viability, T/C [25]: 66.1% | viability, T/C [26]: 64.4% | viability, T/C [27]: 65.9% | viability, T/C [28]: 70.5% | viability, T/C [29]: 67.5% | viability, T/C [30]: 37.3%

CC(=O)c1c(C)c2cnc(Nc3ccc(N4CCNCC4)cn3)nc2n(C2CCCC2)c1=O + CCN1CCN(Cc2ccc(Nc3ncc(F)c(-c4cc(F)c5nc(C)n(C(C)C)c5c4)n3)nc2)CC1
IC50 (second compound 0.01 µM): > 0.3 µM | IC50 (second compound 0.0316 µM): > 0.3 µM | IC50 (second compound 0.1 µM): > 0.3 µM | IC50 (second compound 0.316 µM): > 0.3 µM | IC50 (second compound 1 µM): > 0.3 µM | viability, T/C (second compound 0.01 µM, first compound 0.000949 µM): 88.5% | viability, T/C (second compound 0.01 µM, first compound 0.003 µM): 90.5% | viability, T/C [31]: 87.2% | viability, T/C [32]: 90.4% | viability, T/C [33]: 90.2% | viability, T/C [34]: 84.8% | viability, T/C (second compound 0.0316 µM, first compound 0.000949 µM): 93.7% | viability, T/C (second compound 0.0316 µM, first compound 0.003 µM): 84.9% | viability, T/C [35]: 90% | viability, T/C [36]: 85.4% | viability, T/C [37]: 83.4% | viability, T/C [38]: 80.9% | viability, T/C (second compound 0.1 µM, first compound 0.000949 µM): 78.6% | viability, T/C (second compound 0.1 µM, first compound 0.003 µM): 76.9% | viability, T/C [39]: 77.9% | viability, T/C [40]: 76.9% | viability, T/C [41]: 73.4% | viability, T/C [42]: 76.7% | viability, T/C (second compound 0.316 µM, first compound 0.000949 µM): 74.5% | viability, T/C (second compound 0.316 µM, first compound 0.003 µM): 72% | viability, T/C [43]: 75.5% | viability, T/C [44]: 75% | viability, T/C [45]: 71.3% | viability, T/C [46]: 66.6% | viability, T/C (second compound 1 µM, first compound 0.000949 µM): 58.9% | viability, T/C (second compound 1 µM, first compound 0.003 µM): 61.2% | viability, T/C [47]: 61.6% | viability, T/C [48]: 60.4% | viability, T/C [49]: 58% | viability, T/C [50]: 60.2%

CC(C)(C)c1cnc(CSc2cnc(NC(=O)C3CCNCC3)s2)o1 + CCN1CCN(Cc2ccc(Nc3ncc(F)c(-c4cc(F)c5nc(C)n(C(C)C)c5c4)n3)nc2)CC1
IC50 (second compound 0.01 µM): 0.104 µM | IC50 (second compound 0.0316 µM): 0.0822 µM | IC50 (second compound 0.1 µM): 0.0666 µM | IC50 (second compound 0.316 µM): 0.0604 µM | IC50 (second compound 1 µM): 0.0349 µM | viability, T/C [31]: 108% | viability, T/C [32]: 98.6% | viability, T/C [33]: 54% | viability, T/C [34]: 8.61% | viability, T/C (second compound 0.01 µM, first compound 0.949 µM): 6.08% | viability, T/C (second compound 0.01 µM, first compound 3 µM): 5.15% | viability, T/C [35]: 94.3% | viability, T/C [36]: 88.2% | viability, T/C [37]: 44.7% | viability, T/C [38]: 8.69% | viability, T/C (second compound 0.0316 µM, first compound 0.949 µM): 5.54% | viability, T/C (second compound 0.0316 µM, first compound 3 µM): 5.3% | viability, T/C [39]: 87.6% | viability, T/C [40]: 77.4% | viability, T/C [41]: 38.1% | viability, T/C [42]: 7.33% | viability, T/C (second compound 0.1 µM, first compound 0.949 µM): 5.93% | viability, T/C (second compound 0.1 µM, first compound 3 µM): 4.44% | viability, T/C [43]: 77.5% | viability, T/C [44]: 75.4% | viability, T/C [45]: 33.8% | viability, T/C [46]: 7.83% | viability, T/C (second compound 0.316 µM, first compound 0.949 µM): 5.35% | viability, T/C (second compound 0.316 µM, first compound 3 µM): 4.86% | viability, T/C [47]: 67.8% | viability, T/C [48]: 55.7% | viability, T/C [49]: 12.7% | viability, T/C [50]: 6.89% | viability, T/C (second compound 1 µM, first compound 0.949 µM): 4.71% | viability, T/C (second compound 1 µM, first compound 3 µM): 4.63%

Cn1nccc1Nc1nccc(-c2ccn(C(CO)c3ccc(Cl)c(F)c3)c(=O)c2)n1 (stereo not given) + CCN1CCN(Cc2ccc(Nc3ncc(F)c(-c4cc(F)c5nc(C)n(C(C)C)c5c4)n3)nc2)CC1
IC50 (second compound 0.01 µM): > 10 µM | IC50 (second compound 0.0316 µM): 7.22 µM | IC50 (second compound 0.1 µM): > 10 µM | IC50 (second compound 0.316 µM): > 10 µM | IC50 (second compound 1 µM): > 10 µM | viability, T/C [1]: 86.9% | viability, T/C [2]: 68.4% | viability, T/C [3]: 71% | viability, T/C [4]: 85.6% | viability, T/C [5]: 103% | viability, T/C [6]: 82.1% | viability, T/C [7]: 85.4% | viability, T/C [8]: 64.7% | viability, T/C [9]: 69.8% | viability, T/C [10]: 82.5% | viability, T/C [11]: 105% | viability, T/C [12]: 37.7% | viability, T/C [13]: 65.2% | viability, T/C [14]: 60.4% | viability, T/C [15]: 63.5% | viability, T/C [16]: 75.1% | viability, T/C [17]: 92.6% | viability, T/C [18]: 53.6% | viability, T/C [19]: 67.1% | viability, T/C [20]: 60.7% | viability, T/C [21]: 61.9% | viability, T/C [22]: 77% | viability, T/C [23]: 79.1% | viability, T/C [24]: 54.8% | viability, T/C [25]: 66.4% | viability, T/C [26]: 68.2% | viability, T/C [27]: 61.5% | viability, T/C [28]: 73.5% | viability, T/C [29]: 90.2% | viability, T/C [30]: 64.3%
